Values of other authors in patent US12605362B2, “Eletriptan hydrobromide for treatment of spinal cord injury and improvement of locomotor function” (TECHNOPHAGE, INVESTIGAÇÃO E DESENVOLVIMENTO EM …, priority 2020, dated 2026).

Conditions: in the presence of the selective 5-HT2 antagonists SB204741 and SB242084; cited from earlier work

Structure (SMILES): c1ccc2nc(N3CCNCC3)ccc2c1 [quipazine]
- locomotor-like movements: induction in locomotor-like movements
